According to PubChem BioAssay (NCI):
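48-hour exposure; five concentrations; linearly interpolated endpoints. At the TGI there is no net growth.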

Legend:
Experiment in all cases: NCI-60 cell line screen, 48 h
HCT-116 colon = tested on: HCT-116 colon
SK-MEL-5 melanoma = tested on: SK-MEL-5 melanoma
NCI-H23 lung = tested on: NCI-H23 lung
UACC-257 melanoma = tested on: UACC-257 melanoma
UACC-62 melanoma = tested on: UACC-62 melanoma
HL-60(TB) leukemia = tested on: HL-60(TB) leukemia
COLO 205 colon = tested on: COLO 205 colon
HT29 colon = tested on: HT29 colon
OVCAR-5 ovarian = tested on: OVCAR-5 ovarian
CAKI-1 renal = tested on: CAKI-1 renal
A549 NSCLC = tested on: A549 NSCLC
BT-549 breast = tested on: BT-549 breast
SNB-75 CNS = tested on: SNB-75 CNS
SK-OV-3 ovarian = tested on: SK-OV-3 ovarian
UO-31 renal = tested on: UO-31 renal
MDA-MB-231 breast = tested on: MDA-MB-231 breast
EKVX NSCLC = tested on: EKVX NSCLC
MALME-3M melanoma = tested on: MALME-3M melanoma
786-0 renal = tested on: 786-0 renal
KM12 colon = tested on: KM12 colon
OVCAR-4 ovarian = tested on: OVCAR-4 ovarian
CCRF-CEM leukemia = tested on: CCRF-CEM leukemia
DU-145 prostate = tested on: DU-145 prostate
MOLT-4 leukemia = tested on: MOLT-4 leukemia
PC-3 prostate = tested on: PC-3 prostate
K-562 leukemia = tested on: K-562 leukemia
RXF 393 renal = tested on: RXF 393 renal
A498 renal = tested on: A498 renal
NCI/ADR-RES ovarian = tested on: NCI/ADR-RES ovarian
SF-268 CNS = tested on: SF-268 CNS
MDA-N = tested on: MDA-N
TK-10 renal = tested on: TK-10 renal
MCF7 breast = tested on: MCF7 breast
RPMI-8226 leukemia = tested on: RPMI-8226 leukemia
HS 578T breast = tested on: HS 578T breast
SF-539 CNS = tested on: SF-539 CNS
SR leukemia = tested on: SR leukemia
HCC-2998 colon = tested on: HCC-2998 colon
LOX IMVI melanoma = tested on: LOX IMVI melanoma
SW-620 colon = tested on: SW-620 colon
M14 melanoma = tested on: M14 melanoma
HCT-15 colon = tested on: HCT-15 colon
MDA-MB-435 = tested on: MDA-MB-435
IGROV1 ovarian = tested on: IGROV1 ovarian
NCI-H460 lung = tested on: NCI-H460 lung
OVCAR-3 ovarian = tested on: OVCAR-3 ovarian
U251 CNS = tested on: U251 CNS
SK-MEL-28 melanoma = tested on: SK-MEL-28 melanoma
OVCAR-8 ovarian = tested on: OVCAR-8 ovarian
NCI-H522 lung = tested on: NCI-H522 lung
T-47D breast = tested on: T-47D breast
SNB-19 CNS = tested on: SNB-19 CNS
SK-MEL-2 melanoma = tested on: SK-MEL-2 melanoma
SN12C renal = tested on: SN12C renal
NCI-H226 lung = tested on: NCI-H226 lung
SF-295 CNS = tested on: SF-295 CNS
ACHN renal = tested on: ACHN renal
HOP-62 NSCLC = tested on: HOP-62 NSCLC
HOP-92 NSCLC = tested on: HOP-92 NSCLC

## Cc1ccc(-n2c(O)c3c(N)n[nH]c3c(C#N)c2=O)cc1
HCT-116 colon
  TGI: > 100 µM
SK-MEL-5 melanoma
  TGI: > 100 µM
NCI-H23 lung
  TGI: > 100 µM
UACC-257 melanoma
  TGI: > 100 µM
UACC-62 melanoma
  TGI: > 100 µM
HL-60(TB) leukemia
  TGI: > 100 µM
COLO 205 colon
  TGI: > 100 µM
HT29 colon
  TGI: > 100 µM
OVCAR-5 ovarian
  TGI: > 100 µM
CAKI-1 renal
  TGI: > 100 µM
A549 NSCLC
  TGI: > 100 µM
BT-549 breast
  TGI: > 100 µM
SNB-75 CNS
  TGI: > 100 µM
SK-OV-3 ovarian
  TGI: > 100 µM
UO-31 renal
  TGI: > 100 µM
MDA-MB-231 breast
  TGI: > 100 µM
EKVX NSCLC
  TGI: > 100 µM
MALME-3M melanoma
  TGI: > 100 µM
786-0 renal
  TGI: > 100 µM
KM12 colon
  TGI: > 100 µM
OVCAR-4 ovarian
  TGI: > 100 µM
CCRF-CEM leukemia
  TGI: > 100 µM
DU-145 prostate
  TGI: > 100 µM
MOLT-4 leukemia
  TGI: > 100 µM
PC-3 prostate
  TGI: > 100 µM
K-562 leukemia
  TGI: > 100 µM
RXF 393 renal
  TGI: > 100 µM
A498 renal
  TGI: > 100 µM
NCI/ADR-RES ovarian
  TGI: > 100 µM
SF-268 CNS
  TGI: > 100 µM
MDA-N
  TGI: > 100 µM
TK-10 renal
  TGI: > 100 µM
MCF7 breast
  TGI: > 100 µM
RPMI-8226 leukemia
  TGI: > 100 µM
HS 578T breast
  TGI: > 100 µM
SF-539 CNS
  TGI: > 100 µM
SR leukemia
  TGI: > 100 µM
HCC-2998 colon
  TGI: > 100 µM
LOX IMVI melanoma
  TGI: > 100 µM
SW-620 colon
  TGI: > 100 µM
M14 melanoma
  TGI: > 100 µM
HCT-15 colon
  TGI: > 100 µM
MDA-MB-435
  TGI: > 100 µM
IGROV1 ovarian
  TGI: > 100 µM
NCI-H460 lung
  TGI: > 100 µM
OVCAR-3 ovarian
  TGI: > 100 µM
U251 CNS
  TGI: > 100 µM
SK-MEL-28 melanoma
  TGI: > 100 µM
OVCAR-8 ovarian
  TGI: > 100 µM
NCI-H522 lung
  TGI: > 100 µM
T-47D breast
  TGI: > 100 µM
SNB-19 CNS
  TGI: > 100 µM
SK-MEL-2 melanoma
  TGI: > 100 µM
SN12C renal
  TGI: > 100 µM
NCI-H226 lung
  TGI: > 100 µM

## S=C1C(=Nc2ccccc2)N(c2ccccc2)/C(=N\c2ccccn2)N1c1ccccc1
HCT-116 colon
  TGI: 30.4 µM
SK-MEL-5 melanoma
  TGI: 27.2 µM
NCI-H23 lung
  TGI: 25 µM
UACC-257 melanoma
  TGI: 27.3 µM
UACC-62 melanoma
  TGI: 17.1 µM
HL-60(TB) leukemia
  TGI: > 100 µM
COLO 205 colon
  TGI: 22.7 µM
HT29 colon
  TGI: 24.8 µM
OVCAR-5 ovarian
  TGI: 29.9 µM
CAKI-1 renal
  TGI: 29 µM
A549 NSCLC
  TGI: 38.6 µM
SNB-75 CNS
  TGI: 28.3 µM
SK-OV-3 ovarian
  TGI: 36 µM
UO-31 renal
  TGI: 26.1 µM
MDA-MB-231 breast
  TGI: 31.6 µM
EKVX NSCLC
  TGI: 29.1 µM
SF-295 CNS
  TGI: 29.9 µM
MALME-3M melanoma
  TGI: 30.6 µM
786-0 renal
  TGI: 27.6 µM
KM12 colon
  TGI: 25.5 µM
OVCAR-4 ovarian
  TGI: 29.5 µM
CCRF-CEM leukemia
  TGI: > 100 µM
DU-145 prostate
  TGI: 35 µM
MOLT-4 leukemia
  TGI: > 100 µM
PC-3 prostate
  TGI: 25.4 µM
K-562 leukemia
  TGI: > 100 µM
RXF 393 renal
  TGI: 22.4 µM
ACHN renal
  TGI: 15.9 µM
A498 renal
  TGI: 30.4 µM
NCI/ADR-RES ovarian
  TGI: 33.7 µM
SF-268 CNS
  TGI: 31.4 µM
HOP-62 NSCLC
  TGI: 30.1 µM
MDA-N
  TGI: 18.5 µM
TK-10 renal
  TGI: 28.8 µM
RPMI-8226 leukemia
  TGI: > 100 µM
HS 578T breast
  TGI: 39.5 µM
SF-539 CNS
  TGI: 20.9 µM
SR leukemia
  TGI: 60.8 µM
HOP-92 NSCLC
  TGI: 25.7 µM
HCC-2998 colon
  TGI: 27.1 µM
LOX IMVI melanoma
  TGI: 21.9 µM
SW-620 colon
  TGI: 27.9 µM
HCT-15 colon
  TGI: 27.7 µM
MDA-MB-435
  TGI: 28.5 µM
IGROV1 ovarian
  TGI: 26.2 µM
NCI-H460 lung
  TGI: 27 µM
U251 CNS
  TGI: 29.5 µM
SK-MEL-28 melanoma
  TGI: 30.5 µM
OVCAR-8 ovarian
  TGI: 27.5 µM
NCI-H522 lung
  TGI: 3.59 µM
T-47D breast
  TGI: 41.5 µM
SNB-19 CNS
  TGI: 29.9 µM
SK-MEL-2 melanoma
  TGI: 24.6 µM
SN12C renal
  TGI: 24 µM
NCI-H226 lung
  TGI: 36.8 µM
